These results are taken from patent publication US12036267B2 (BICT S.R.L., priority 2017, dated 2024).

In one assay the test system is E. coli. Kind of assay: Antimicrobial activity (MIC / FIC index) of extracts and nisin. Conditions: nisin alone. The format is cell-based. The protocol: (§1) The antimicrobial activity of the composition according to the invention has been assessed in relation to gram-positive and gram-negative bacteria, as well as fungi and yeast, by means of in vitro susceptibility testing with the antimicrobial dilution method (CLSI protocols—Clinical and Laboratory Standards Institute), as a result of which the MIC (Minimum Inhibitory Concentration) was determined for each of the microorganisms in question.
(§2) For all the tests carried out, a positive control for the antimicrobial activity was carried out by using fluconazole (for fungi and yeasts) and ceftriaxone (for bacterial strains) and a negative control (no compounds) in which the correct microbial growth was assessed.
(§3) The FIC index is determined using the following formula:
(§4) FIC Index>1=> no synergistic effect
(§5) In this example, the antimicrobial activity of the individual natural extracts was first assessed as follows:
(§6) The antimicrobial activity of the individual natural extracts was then assessed in association with the composition according to the invention in Example 8:
(§7) The interaction of the composition in Example 8 with other natural antimicrobial peptides, such as nisin, was assessed.
(§8) After determining the antimicrobial activity of nisin alone, the antimicrobial activity of nisin was assessed in association with the composition according to the invention: […]

Another assay concerns S. aureus. Described as above. As to conditions: nisin alone. It counts as cell-based. The protocol: as §1, §2, §3, §4, §5, §6, §7, §8

Regarding nisin, the MIC result in the assay on E. coli is given as “E. coli - 18750 UI/ml”; in the assay with S. aureus it was “S. aureus - 17 UI/ml”.
